Assay: (§1) The drug is tested on Z-028 corresponding to mouse gut metagenome with ENA study accession number: PRJEB37062 and ENA sample accession number: ERS12561827 for biotransformation under anaerobic condition. The drug concentrations were measured over 9 timepoints collected between 0 and 24 hours of incubation by liquid-chromatography-coupled mass spectrometry (LC–MS)
Conditions: 2 µM
Also: call rule not given here.

| Bacterial Biotransformation | Structure (SMILES) |
| --- | --- |
| Compound NOT metabolized | Nc1nc(NC2CC2)c2ncn([C@H]3C=C[C@@H](CO)C3)c2n1.Nc1nc(NC2CC2)c2ncn([C@H]3C=C[C@@H](CO)C3)c2n1.O=S(=O)(O)O [ABACAVIR SULFATE] |
| Compound NOT metabolized | CCN(CC)CCNC(=O)c1ccc(NC(C)=O)cc1 [ACECAINIDE] |

More lines, now with the values behind:

| Structure (SMILES) | Bacterial Biotransformation |
| --- | --- |
| CSc1ccc2c(c1)C(N1CCN(C)CC1)Cc1ccccc1S2.O=C(O)/C=C\C(=O)O (centres undefined) | Compound NOT metabolized |
| CCN(CC)C(=O)C1(c2ccccc2)CC1CN (centres undefined) | Compound NOT metabolized |
| COc1ccc(/C=C/C(=O)Nc2ccccc2C(=O)O)cc1OC | Compound NOT metabolized |

Assay: as §1, with “WLS-370” for “Z-028”, “human” for “mouse”, “ERS12561793” for “ERS12561827”
Conditions: 2 µM

| Bacterial Biotransformation | Structure (SMILES) |
| --- | --- |
| Compound NOT metabolized | Nc1nc(NC2CC2)c2ncn([C@H]3C=C[C@@H](CO)C3)c2n1.Nc1nc(NC2CC2)c2ncn([C@H]3C=C[C@@H](CO)C3)c2n1.O=S(=O)(O)O [ABACAVIR SULFATE] |
| Compound NOT metabolized | CCN(CC)CCNC(=O)c1ccc(NC(C)=O)cc1 [ACECAINIDE] |

The remaining lines, values behind:

| Structure (SMILES) | Bacterial Biotransformation |
| --- | --- |
| CSc1ccc2c(c1)C(N1CCN(C)CC1)Cc1ccccc1S2.O=C(O)/C=C\C(=O)O (centres undefined) | Compound NOT metabolized |
| CCN(CC)C(=O)C1(c2ccccc2)CC1CN (centres undefined) | Compound NOT metabolized |
| COc1ccc(/C=C/C(=O)Nc2ccccc2C(=O)O)cc1OC | Compound NOT metabolized |

Assay: as §1, with “WLS-006” for “Z-028”, “human” for “mouse”, “ERS12561741” for “ERS12561827”
Conditions: 2 µM

| Bacterial Biotransformation | Structure (SMILES) |
| --- | --- |
| Compound metabolized | Nc1nc(NC2CC2)c2ncn([C@H]3C=C[C@@H](CO)C3)c2n1.Nc1nc(NC2CC2)c2ncn([C@H]3C=C[C@@H](CO)C3)c2n1.O=S(=O)(O)O [ABACAVIR SULFATE] |
| Compound NOT metabolized | CCN(CC)CCNC(=O)c1ccc(NC(C)=O)cc1 [ACECAINIDE] |

The remaining lines, values behind:

| Structure (SMILES) | Bacterial Biotransformation |
| --- | --- |
| CSc1ccc2c(c1)C(N1CCN(C)CC1)Cc1ccccc1S2.O=C(O)/C=C\C(=O)O (centres undefined) | Compound NOT metabolized |
| CCN(CC)C(=O)C1(c2ccccc2)CC1CN (centres undefined) | Compound NOT metabolized |
| COc1ccc(/C=C/C(=O)Nc2ccccc2C(=O)O)cc1OC | Compound NOT metabolized |

Conditions: human gut metagenome, 24 h, 2 µM

| Bacterial Biotransformation | Structure (SMILES) |
| --- | --- |
| Compound NOT metabolized | Nc1nc(NC2CC2)c2ncn([C@H]3C=C[C@@H](CO)C3)c2n1.Nc1nc(NC2CC2)c2ncn([C@H]3C=C[C@@H](CO)C3)c2n1.O=S(=O)(O)O [ABACAVIR SULFATE] |
| Compound NOT metabolized | CCN(CC)CCNC(=O)c1ccc(NC(C)=O)cc1 [ACECAINIDE] |

More lines, now with the values behind:

| Structure (SMILES) | Bacterial Biotransformation |
| --- | --- |
| CSc1ccc2c(c1)C(N1CCN(C)CC1)Cc1ccccc1S2.O=C(O)/C=C\C(=O)O (centres undefined) | Compound NOT metabolized |
| CCN(CC)C(=O)C1(c2ccccc2)CC1CN (centres undefined) | Compound NOT metabolized |
| COc1ccc(/C=C/C(=O)Nc2ccccc2C(=O)O)cc1OC | Compound NOT metabolized |

Conditions: human gut metagenome, 24 h, 2 µM
Remark: another data set of the same source

| Bacterial Biotransformation | Structure (SMILES) |
| --- | --- |
| Compound NOT metabolized | Nc1nc(NC2CC2)c2ncn([C@H]3C=C[C@@H](CO)C3)c2n1.Nc1nc(NC2CC2)c2ncn([C@H]3C=C[C@@H](CO)C3)c2n1.O=S(=O)(O)O [ABACAVIR SULFATE] |
| Compound NOT metabolized | CCN(CC)CCNC(=O)c1ccc(NC(C)=O)cc1 [ACECAINIDE] |

More lines, now with the values behind:

| Structure (SMILES) | Bacterial Biotransformation |
| --- | --- |
| CSc1ccc2c(c1)C(N1CCN(C)CC1)Cc1ccccc1S2.O=C(O)/C=C\C(=O)O (centres undefined) | Compound NOT metabolized |
| CCN(CC)C(=O)C1(c2ccccc2)CC1CN (centres undefined) | Compound NOT metabolized |
| COc1ccc(/C=C/C(=O)Nc2ccccc2C(=O)O)cc1OC | Compound NOT metabolized |

Conditions: human gut metagenome, 24 h, 2 µM
Remark: another data set of the same source

| Bacterial Biotransformation | Structure (SMILES) |
| --- | --- |
| Compound metabolized | Nc1nc(NC2CC2)c2ncn([C@H]3C=C[C@@H](CO)C3)c2n1.Nc1nc(NC2CC2)c2ncn([C@H]3C=C[C@@H](CO)C3)c2n1.O=S(=O)(O)O [ABACAVIR SULFATE] |
| Compound NOT metabolized | CCN(CC)CCNC(=O)c1ccc(NC(C)=O)cc1 [ACECAINIDE] |

The remaining lines, values behind:

| Structure (SMILES) | Bacterial Biotransformation |
| --- | --- |
| CSc1ccc2c(c1)C(N1CCN(C)CC1)Cc1ccccc1S2.O=C(O)/C=C\C(=O)O (centres undefined) | Compound NOT metabolized |
| CCN(CC)C(=O)C1(c2ccccc2)CC1CN (centres undefined) | Compound NOT metabolized |
| COc1ccc(/C=C/C(=O)Nc2ccccc2C(=O)O)cc1OC | Compound metabolized |

Conditions: human gut metagenome, 24 h, 2 µM
Remark: another data set of the same source

| Bacterial Biotransformation | Structure (SMILES) |
| --- | --- |
| Compound metabolized | Nc1nc(NC2CC2)c2ncn([C@H]3C=C[C@@H](CO)C3)c2n1.Nc1nc(NC2CC2)c2ncn([C@H]3C=C[C@@H](CO)C3)c2n1.O=S(=O)(O)O [ABACAVIR SULFATE] |
| Compound NOT metabolized | CCN(CC)CCNC(=O)c1ccc(NC(C)=O)cc1 [ACECAINIDE] |

The next lines start with the molecule.

| Structure (SMILES) | Bacterial Biotransformation |
| --- | --- |
| CSc1ccc2c(c1)C(N1CCN(C)CC1)Cc1ccccc1S2.O=C(O)/C=C\C(=O)O (centres undefined) | Compound NOT metabolized |
| CCN(CC)C(=O)C1(c2ccccc2)CC1CN (centres undefined) | Compound NOT metabolized |
| COc1ccc(/C=C/C(=O)Nc2ccccc2C(=O)O)cc1OC | Compound NOT metabolized |

Conditions: human gut metagenome, 24 h, 2 µM
Remark: another data set of the same source

| Bacterial Biotransformation | Structure (SMILES) |
| --- | --- |
| Compound NOT metabolized | Nc1nc(NC2CC2)c2ncn([C@H]3C=C[C@@H](CO)C3)c2n1.Nc1nc(NC2CC2)c2ncn([C@H]3C=C[C@@H](CO)C3)c2n1.O=S(=O)(O)O [ABACAVIR SULFATE] |
| Compound NOT metabolized | CCN(CC)CCNC(=O)c1ccc(NC(C)=O)cc1 [ACECAINIDE] |

More lines, now with the values behind:

| Structure (SMILES) | Bacterial Biotransformation |
| --- | --- |
| CSc1ccc2c(c1)C(N1CCN(C)CC1)Cc1ccccc1S2.O=C(O)/C=C\C(=O)O (centres undefined) | Compound NOT metabolized |
| CCN(CC)C(=O)C1(c2ccccc2)CC1CN (centres undefined) | Compound NOT metabolized |
| COc1ccc(/C=C/C(=O)Nc2ccccc2C(=O)O)cc1OC | Compound NOT metabolized |

Conditions: human gut metagenome, 24 h, 2 µM
Remark: another data set of the same source

| Bacterial Biotransformation | Structure (SMILES) |
| --- | --- |
| Compound metabolized | Nc1nc(NC2CC2)c2ncn([C@H]3C=C[C@@H](CO)C3)c2n1.Nc1nc(NC2CC2)c2ncn([C@H]3C=C[C@@H](CO)C3)c2n1.O=S(=O)(O)O [ABACAVIR SULFATE] |
| Compound metabolized | CCN(CC)CCNC(=O)c1ccc(NC(C)=O)cc1 [ACECAINIDE] |

Further lines, the molecule ahead of its results:

| Structure (SMILES) | Bacterial Biotransformation |
| --- | --- |
| CSc1ccc2c(c1)C(N1CCN(C)CC1)Cc1ccccc1S2.O=C(O)/C=C\C(=O)O (centres undefined) | Compound NOT metabolized |
| CCN(CC)C(=O)C1(c2ccccc2)CC1CN (centres undefined) | Compound NOT metabolized |
